Patent US20230023332A1, “OLEAN-PHENYLACRYLAMIDE DERIVATIVE, METHOD FOR PREPARING SAME, AND USE THEREOF” (Lunan Pharmaceutical Group Corporation, priority 2019, published 2023)

What was measured:
Format in all cases: cell-based
[1] = tested on: human liver cancer cell strain HepG2; test: MTT proliferation inhibition, HepG2; conditions: Homo sapiens, HepG2 cells, 48 h, read-out: Inhibitory activity (IC50) against proliferation, HepG2
Procedure: (§1) The anti-tumor activity of the compounds of the present invention was determined by the method of methyl thiazolyl tetrazolium (MTT), Bardoxolone Methyl (CDDO-Me) being selected as a positive control medicament.
(§2) Instruments: ultra-clean bench (SW-CJ-1FD, AIRTECH, Suzhou Antai Airtech Co. Ltd.), constant-temperature CO2 incubator (3111, Thermo, USA), inverted biomicroscope (IX71, OLYMPUS, Japan), ELISA microplate reader (Model 680, BIO-RAD, USA), platform shaker (Kylin-bell lab Instruments), autoclave (YXO.SG4I.280, Shanghai Huaxian), and centrifuge (SIGMA).
(§3) Reagents: DMEM (GIBCO), fetal bovine serum (GIBCO), trypsin (SIGMA), and DMSO (SIGMA).
(§4) Cell strains: human non-small cell lung cancer cell strain A549, human liver cancer cell strain HepG2, human breast cancer cell strain MCF-7, human renal tubular epithelial cells HK-2, rat embryonic cardiomyocytes H9C2 (all provided by Jiangsu KeyGEN BioTECH Co., Ltd.).
(§5) Methods: the cryopreserved cell strains were resuscitated and cultured in a CO2 incubator at a constant temperature of 37° C. with liquid being changed once daily. Plating was carried out when the cell strains were in a good state in the exponential phase. 1 mL of 0.25% trypsin solution was added for digestion for 1-2 min. The cell status was observed under the microscope, and when the adherent cells became round and shrunk, the digestion solution was aspirated and 1-2 mL of a DMEM medium containing 10% fetal bovine serum was added to obtain a cell suspension, on which a cell count was performed. The amount of required cell suspension was calculated on the basis of 5×10^4 cells per well and the total number of wells. The cell suspension was inoculated on a 96-well plate at 100 μL/well, the surroundings being blocked with PBS, followed by incubation in a CO2 incubator at a constant temperature of 37° C. for 24 h.
The MTT reagent was added to the 96-well plate at 10 μL/well to further incubate for 4 h. The medium in the plate was aspirated and 100 μL of DMSO was added to each well, followed by shaking on the platform shaker for 10 min such that the crystals were dissolved. […] The mean value of three preliminary screening results was taken as the final inhibition rate thereof.
(§6) Cell inhibition rate (%)=[(OD value of blank control−OD value of dosing cohort)/OD value of blank control group]×100%

[2] = tested on: human non-small cell lung cancer cell strain A549; test: MTT proliferation inhibition, A549; conditions: Homo sapiens, A549 cells, 48 h, read-out: Inhibitory activity (IC50) against proliferation, A549
Procedure: as §1, §2, §3, §4, §5
(§7) The test medicament, positive control medicament CDDO-Me, and blank control group DMSO were prepared in DMEM media to a final concentration of 5 μM/well, each medicament being placed in 3 replicate wells, followed by incubation for 48 h. The MTT reagent was added to the 96-well plate at 10 μL/well to further incubate for 4 h. The medium in the plate was aspirated and 100 μL of DMSO was added to each well, followed by shaking on the platform shaker for 10 min such that the crystals were dissolved. The absorbance of each well was examined by the ELISA microplate reader at a wavelength of 570 nm, and the cell inhibition rate was calculated according to the formula hereinafter. The mean value of three preliminary screening results was taken as the final inhibition rate thereof.
as §6

[3] = tested on: human breast cancer cell strain MCF-7; test: MTT proliferation inhibition, MCF-7; conditions: Homo sapiens, MCF7, MCF-7 cells, 48 h, read-out: Inhibitory activity (IC50) against proliferation, MCF-7
Procedure: as §1, §2, §3, §4, §5, §7, §6

[4] = tested on: human renal tubular epithelial cells HK-2; test: MTT proliferation inhibition / toxicity, HK-2; conditions: for IC50: Homo sapiens, HK-2 cells, MTT, 48 h, read-out: Inhibitory activity (IC50) against proliferation, HK-2; for toxicity to human renal tubular epithelial cells HK-2: statement in words
Procedure: as §1, §2, §3, §4, §5, §7, §6

[5] = tested on: rat embryonic cardiomyocytes H9C2; test: MTT proliferation inhibition / toxicity, H9C2; conditions: Rattus norvegicus; H9C2 cardiomyocytes, MTT, 48 h; read-out: Inhibitory activity (IC50) against proliferation, H9C2
Procedure: as §1, §2, §3, §4, §5, §7, §6

Row | SMILES | IC50 [1] [µM] | IC50 [2] [µM] | IC50 [3] [µM] | IC50 [4] [µM] | toxicity to human renal tubular epithelial cells HK-2 [4] | IC50 [5] [µM]
1 | Cc1ccc(/C=C/C(=O)N[C@]23CCC(C)(C)C[C@H]2[C@H]2C(=O)C=C4[C@@]5(C)C=C(C#N)C(=O)C(C)(C)[C@@H]5CC[C@@]4(C)[C@]2(C)CC3)cc1 [Compound I-2] | 0.772 ± 0.063 | 0.549 ± 0.01 | 0.547 ± 0.074 | 1.39 ± 0.032 | lower toxicity | 0.218 ± 0.007
2 | CC1(C)CC[C@]2(NC(=O)/C=C/c3ccc(F)cc3)CC[C@]3(C)[C@H](C(=O)C=C4[C@@]5(C)C=C(C#N)C(=O)C(C)(C)[C@@H]5CC[C@]43C)[C@@H]2C1 [Compound I-5] | 0.785 ± 0.096 | 0.788 ± 0.345 | 1.31 ± 0.127 | 2.825 ± 0.004 | lower toxicity | 0.316 ± 0.001
3 | Cc1ccc(/C=C(\C#N)C(=O)N[C@]23CCC(C)(C)C[C@H]2[C@H]2C(=O)C=C4[C@@]5(C)C=C(C#N)C(=O)C(C)(C)[C@@H]5CC[C@@]4(C)[C@]2(C)CC3)cc1 [Compound I-8] | 0.563 ± 0.023 | 0.329 ± 0.047 | 0.789 ± 0.052 | 0.423 ± 0.03 | lower toxicity | 0.274 ± 0.002
4 | COc1ccc(/C=C(\C#N)C(=O)N[C@]23CCC(C)(C)C[C@H]2[C@H]2C(=O)C=C4[C@@]5(C)C=C(C#N)C(=O)C(C)(C)[C@@H]5CC[C@@]4(C)[C@]2(C)CC3)cc1 [Compound I-9] | 0.816 ± 0.014 | 0.624 ± 0.111 | 1.13 ± 0.04 | 0.748 ± 0.341 | lower toxicity | 0.417 ± 0.019
5 | CC1(C)CC[C@]2(NC(=O)/C=C(\C#N)c3ccc(Cl)cc3)CC[C@]3(C)[C@H](C(=O)C=C4[C@@]5(C)C=C(C#N)C(=O)C(C)(C)[C@@H]5CC[C@]43C)[C@@H]2C1 [Compound I-18] | 0.406 ± 0.017 | 0.3 ± 0.013 | 0.5 ± 0.17 | 0.647 ± 0.021 | lower toxicity | –

Continued, in another order:

Row | IC50 [1] [µM] | IC50 [2] [µM] | IC50 [3] [µM] | SMILES | IC50 [4] [µM] | toxicity to human renal tubular epithelial cells HK-2 [4] | IC50 [5] [µM]
6 | 0.409 ± 0.016 | 0.599 ± 0.377 | 0.574 ± 0.021 | CC1(C)CC[C@]2(NC(=O)/C=C/c3ccccc3)CC[C@]3(C)[C@H](C(=O)C=C4[C@@]5(C)C=C(C#N)C(=O)C(C)(C)[C@@H]5CC[C@]43C)[C@@H]2C1 [Compound I-1] | 0.799 ± 0.092 | lower toxicity | 0.251 ± 0.008
7 | 0.527 ± 0.133 | 0.367 ± 0.018 | 0.375 ± 0.038 | COc1ccc(/C=C/C(=O)N[C@]23CCC(C)(C)C[C@H]2[C@H]2C(=O)C=C4[C@@]5(C)C=C(C#N)C(=O)C(C)(C)[C@@H]5CC[C@@]4(C)[C@]2(C)CC3)cc1 [Compound I-3] | 0.7 ± 0.016 | lower toxicity | 0.174 ± 0.005
8 | 0.412 ± 0.006 | 0.402 ± 0.02 | 0.562 ± 0.132 | CC1(C)CC[C@]2(NC(=O)/C=C/c3ccc(C(F)(F)F)cc3)CC[C@]3(C)[C@H](C(=O)C=C4[C@@]5(C)C=C(C#N)C(=O)C(C)(C)[C@@H]5CC[C@]43C)[C@@H]2C1 [Compound I-4] | 0.516 ± 0.072 | lower toxicity | 0.215 ± 0.004
9 | 0.482 ± 0.002 | 0.588 ± 0.036 | 0.738 ± 0.009 | CC1(C)CC[C@]2(NC(=O)/C=C/c3ccc(Cl)cc3)CC[C@]3(C)[C@H](C(=O)C=C4[C@@]5(C)C=C(C#N)C(=O)C(C)(C)[C@@H]5CC[C@]43C)[C@@H]2C1 [Compound I-6] | 0.727 ± 0.43 | lower toxicity | 0.373 ± 0.002
10 | 0.297 ± 0.011 | 0.362 ± 0.012 | 0.46 ± 0.105 | CC1(C)CC[C@]2(NC(=O)/C(C#N)=C/c3ccc(C(F)(F)F)cc3)CC[C@]3(C)[C@H](C(=O)C=C4[C@@]5(C)C=C(C#N)C(=O)C(C)(C)[C@@H]5CC[C@]43C)[C@@H]2C1 [Compound I-10] | 0.234 ± 0.117 | – | 0.233 ± 0.01
11 | 0.114 ± 0.004 | 0.345 ± 0.174 | 0.238 ± 0.008 | CC1(C)CC[C@]2(NC(=O)/C=C(\C#N)c3ccc(F)cc3)CC[C@]3(C)[C@H](C(=O)C=C4[C@@]5(C)C=C(C#N)C(=O)C(C)(C)[C@@H]5CC[C@]43C)[C@@H]2C1 [Compound I-17] | 0.229 ± 0.126 | – | –
